These results are taken from patent publication US9458198B1, “Cyclic peptide-based NPR-B agonists” (priority 2009, dated 2016).

Like-named read-outs stand apart in the source and are kept apart here. Where a SMILES comes first, the peptide text is derived from it. Bridges are numbered along the chain shown (N, C = ends). [ ]: non-standard residue; d: D form. The star is where a group is joined. Hexanoyl = CCCCCC(=O)* Bounds are passed on as bounds.

For experiment [1], the system named is human colon adenocarcinoma cells. The settings on record: 1 mM, within 24 h; cited from earlier work.
Experiment [2] deals with NPR-A (Rattus norvegicus, UniProt P18910). Nature of the experiment: cell-based.
Protocol: In this homogenous assay, the cells are stimulated in suspension with the test compound and the production of cyclic GMP (cGMP) is determined, from which EC50 values are calculated.
Detached cells are harvested in 20 ml PBS and centrifuged for 10 min at 200×g at room temperature.
20 μl of cells (2.5×10^3 cells) are added to each well of a 96 well white optical bottom tissue culture plate (Nunc, Germany). 10 μl of compound dilution is added and the cells are stimulated for 25 min. at room temperature. The stimulation is stopped by addition of 20 μl of Lysis buffer (reagent included in cGMP Assay Kit).
Determination of cGMP: The amount of produced cGMP in the cells is determined using HitHunter™ cGMP Assay kit (DiscoveRX) according to manufacturer's instructions.
Dilutions are prepared in Medium supplemented with IBMX (1 mM).
Experiment [3] relates to human renal carcinoma cells. The settings on record: 100 μM; cited from earlier work.
Experiment [4] concerns small-cell lung cancer cells. The note with it: 100 nM; cited from earlier work.
Experiment [5] concerns chondrocytes. The settings on record: low doses 10 to 100 pM, at the highest dose; cited from earlier work.
Experiment [6] relates to AtT-20 cells. The settings on record: cited from earlier work.
Experiment [7] addresses T1, NPR-B (Homo sapiens, UniProt P20594).
T1 construct: a functional assay using endogenously NPR-B expressing GTM-3 cells; endogenous in cells; host or cells: GTM-3 (transformed human trabecular meshwork cells)
T1 sequence (P20594 23-1047): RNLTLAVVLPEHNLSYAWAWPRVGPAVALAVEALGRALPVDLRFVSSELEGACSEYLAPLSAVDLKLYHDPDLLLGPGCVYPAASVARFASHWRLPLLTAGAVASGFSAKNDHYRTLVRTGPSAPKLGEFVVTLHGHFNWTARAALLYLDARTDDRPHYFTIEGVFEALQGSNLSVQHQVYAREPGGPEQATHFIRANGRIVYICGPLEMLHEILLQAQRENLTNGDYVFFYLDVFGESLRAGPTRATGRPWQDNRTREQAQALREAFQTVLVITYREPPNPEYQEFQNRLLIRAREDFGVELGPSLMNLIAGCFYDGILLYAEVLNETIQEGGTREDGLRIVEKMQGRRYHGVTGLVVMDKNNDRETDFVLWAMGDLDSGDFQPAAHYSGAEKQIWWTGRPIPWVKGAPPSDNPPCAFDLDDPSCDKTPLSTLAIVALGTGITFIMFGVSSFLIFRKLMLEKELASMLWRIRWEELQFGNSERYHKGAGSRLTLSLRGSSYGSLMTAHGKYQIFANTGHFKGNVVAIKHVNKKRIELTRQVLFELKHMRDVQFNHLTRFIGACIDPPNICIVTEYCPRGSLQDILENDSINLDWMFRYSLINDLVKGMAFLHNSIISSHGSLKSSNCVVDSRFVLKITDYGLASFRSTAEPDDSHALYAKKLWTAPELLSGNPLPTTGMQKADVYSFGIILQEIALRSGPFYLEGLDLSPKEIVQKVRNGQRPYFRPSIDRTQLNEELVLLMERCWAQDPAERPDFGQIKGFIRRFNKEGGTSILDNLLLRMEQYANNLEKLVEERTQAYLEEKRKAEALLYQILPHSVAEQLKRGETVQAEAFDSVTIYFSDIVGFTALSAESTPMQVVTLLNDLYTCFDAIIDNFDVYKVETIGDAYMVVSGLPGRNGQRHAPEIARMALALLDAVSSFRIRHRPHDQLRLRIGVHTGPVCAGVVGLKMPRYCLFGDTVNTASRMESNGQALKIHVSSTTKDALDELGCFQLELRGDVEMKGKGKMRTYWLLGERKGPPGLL
Nature of the experiment: NPR-B induced production of cyclic GMP in GTM-3 cells. Type of experiment: cell-based. The settings on record: GTM-3 cells. In short, it runs like this:
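GTM-3 cells with endogenous NPR-B were washed and preincubated 15 min at room temperature in medium with 1 mM IBMX. Compounds were tested at final 45 μM to 20 nM; dose-dependent cGMP production gave Emax and EC50.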

The mark [8] stands for this setting: group needs both EC50 and Emax criteria, checked A then B then C, read-out: Activity (group): NPR-B activation, EC50 and Emax (CNP = 100%).

Sequence of NPR-A (P18910 29-1057): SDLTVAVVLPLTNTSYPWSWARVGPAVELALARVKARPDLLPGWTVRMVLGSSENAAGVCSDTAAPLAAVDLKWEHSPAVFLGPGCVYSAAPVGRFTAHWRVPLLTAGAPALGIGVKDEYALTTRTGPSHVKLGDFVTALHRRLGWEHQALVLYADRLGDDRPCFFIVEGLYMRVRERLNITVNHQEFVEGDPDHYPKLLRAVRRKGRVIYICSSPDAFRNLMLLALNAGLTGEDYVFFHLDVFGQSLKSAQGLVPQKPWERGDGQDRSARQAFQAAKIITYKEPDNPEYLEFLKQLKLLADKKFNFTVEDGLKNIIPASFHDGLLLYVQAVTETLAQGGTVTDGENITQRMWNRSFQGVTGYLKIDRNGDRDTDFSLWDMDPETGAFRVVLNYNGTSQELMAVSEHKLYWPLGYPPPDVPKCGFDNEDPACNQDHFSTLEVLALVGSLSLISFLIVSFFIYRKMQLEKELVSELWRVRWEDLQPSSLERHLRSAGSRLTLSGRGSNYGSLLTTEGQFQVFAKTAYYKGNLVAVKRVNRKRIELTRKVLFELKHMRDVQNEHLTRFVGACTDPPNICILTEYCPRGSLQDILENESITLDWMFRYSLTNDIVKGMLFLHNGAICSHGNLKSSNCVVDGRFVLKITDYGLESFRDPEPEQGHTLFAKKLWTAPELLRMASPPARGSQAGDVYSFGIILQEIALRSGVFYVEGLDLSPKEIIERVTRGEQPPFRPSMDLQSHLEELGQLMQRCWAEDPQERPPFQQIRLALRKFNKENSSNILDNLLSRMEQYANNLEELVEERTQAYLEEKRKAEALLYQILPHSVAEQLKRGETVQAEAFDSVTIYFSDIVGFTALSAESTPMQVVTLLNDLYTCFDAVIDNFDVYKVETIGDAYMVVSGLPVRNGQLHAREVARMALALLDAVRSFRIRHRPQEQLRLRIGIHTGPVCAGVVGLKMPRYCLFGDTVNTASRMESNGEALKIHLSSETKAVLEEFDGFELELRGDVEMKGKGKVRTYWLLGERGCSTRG

For the compound `CC[C@H](C)[C@@H]1NC(=O)[C@H](CCCNC(=N)N)NC(=O)[C@H](CC(=O)O)NC(=O)[C@H](CCSC)NC(=O)[C@H](CCCNC(=N)N)NC(=O)CNC(=O)CNC(=O)[C@H](Cc2ccccc2)NC(=O)[C@@H](NC(=O)[C@H](CO)NC(=O)[C@H](CO)NC(=O)[C@H](CCCNC(=N)N)NC(=O)[C@H](CCCNC(=N)N)NC(=O)[C@H](CC(C)C)NC(=O)[C@@H](N)CO)CSSC[C@@H](C(=O)N[C@@H](CC(N)=O)C(=O)N[C@@H](CO)C(=O)N[C@@H](Cc2ccccc2)C(=O)N[C@@H](CCCNC(=N)N)C(=O)N[C@@H](Cc2ccc(O)cc2)C(=O)O)NC(=O)CNC(=O)[C@H](CC(C)C)NC(=O)CNC(=O)[C@H](CO)NC(=O)[C@H](CCC(N)=O)NC(=O)[C@H](C)NC(=O)CNC1=O` [ANP, atrial natriuretic peptide], in experiment [1], the “decrease in cell number” value is reported as “up to 97%”.
On to `CC[C@H](C)[C@@H]1NC(=O)[C@H](CCCNC(=N)N)NC(=O)[C@H](CC(=O)O)NC(=O)[C@H](CC(C)C)NC(=O)[C@H](CCCCN)NC(=O)[C@H](CC(C)C)NC(=O)CNC(=O)[C@H](Cc2ccccc2)NC(=O)[C@@H](NC(=O)CNC(=O)[C@H](CCCCN)NC(=O)[C@H](CO)NC(=O)[C@H](CC(C)C)NC(=O)CN)CSSC[C@@H](C(=O)O)NC(=O)CNC(=O)[C@H](CC(C)C)NC(=O)CNC(=O)[C@H](CO)NC(=O)[C@H](CCSC)NC(=O)[C@H](CO)NC(=O)CNC1=O` [CNP, C-type natriuretic peptide], for which the EC50 is 1.6 µM in experiment [2] and 0.0388 µM in experiment [7] (EC50, cyclic GMP production, FIG. 2, 4-Parameter Logistic Equation). For the same compound, in experiment [3], the “decrease in cell number” value was 10%. In addition, the “decrease in the number of cells” value in experiment [4] is on record as 39%. Further, in experiment [5], the “increase in cellularity (chondrocyte proliferation)” value is “up to 43%”. Moreover, the “stimulation of cGMP production” value in experiment [6] was “up to 200 fold”.
As for `CCCCCC(=O)N[C@H]1CSSC[C@@H](C(N)=O)NC(=O)[C@H](CO)NC(=O)[C@H]([C@@H](C)CC)NC(=O)[C@H](CCCNC(=N)N)NC(=O)[C@H](CC(=O)O)NC(=O)[C@H](CC(C)C)NC(=O)[C@H](CCCCN)NC(=O)CNC(=O)CNC(=O)[C@H](Cc2ccccc2)NC(=O)[C@@H](C)NC1=O` [compound 102] (Hexanoyl-C[dA]FGGKLDRISC-NH2; disulfide 1-12), in experiment [7] (setting [8]), the EC50 was below 5 µM.
On the same count and under the same terms, then `CCCCCC(=O)N[C@H]1CSSC[C@@H](C(N)=O)NC(=O)[C@H](CO)NC(=O)[C@H]([C@@H](C)CC)NC(=O)[C@H](CCCNC(=N)N)NC(=O)[C@H](CC(=O)O)NC(=O)[C@H](CC(C)C)NC(=O)[C@H](CCCCN)NC(=O)[C@H](CC(C)C)NC(=O)CNC(=O)[C@H](Cc2cccc(C(F)(F)F)c2)NC(=O)[C@@H](C)NC1=O` [compound 105], with below 15 µM.
Same read-out and setting: the figure for `CCCCCC(=O)N[C@H]1CSSC[C@@H](C(N)=O)NC(=O)[C@H](CO)NC(=O)[C@H]([C@@H](C)CC)NC(=O)[C@H](Cc2ccc(C(=N)N)cc2)NC(=O)[C@H](CC(=O)O)NC(=O)[C@H](CC(C)C)NC(=O)[C@H](CCCCN)NC(=O)[C@H](CC(C)C)NC(=O)CNC(=O)[C@H](Cc2ccccc2)NC(=O)[C@@H](C)NC1=O` [compound 112] is below 15 µM; for `CCCCCC(=O)N[C@H]1CSSC[C@@H](C(N)=O)NC(=O)[C@H](CO)NC(=O)[C@H]([C@@H](C)CC)NC(=O)[C@H](CCNC(=N)N)NC(=O)[C@H](CC(=O)O)NC(=O)[C@H](CC(C)C)NC(=O)[C@H](CCCCN)NC(=O)[C@H](CC(C)C)NC(=O)CNC(=O)[C@H](Cc2ccccc2)NC(=O)[C@@H](C)NC1=O` [compound 114] it is below 15 µM.
Same read-out and setting: then `CCCCCC(=O)N[C@H]1CSSC[C@@H](C(N)=O)NC(=O)[C@H](CO)NC(=O)C2(CCOCC2)NC(=O)[C@H](CCCNC(=N)N)NC(=O)[C@H](CC(=O)O)NC(=O)[C@H](CC(C)C)NC(=O)[C@H](CCCCN)NC(=O)[C@H](CC(C)C)NC(=O)CNC(=O)[C@H](Cc2ccccc2)NC(=O)[C@@H](C)NC1=O` [compound 116], with below 15 µM; and `CCCCCC(=O)N[C@H]1CSSC[C@@H](C(N)=O)NC(=O)[C@H](CO)NC(=O)C2(CCSCC2)NC(=O)[C@H](CCCNC(=N)N)NC(=O)[C@H](CC(=O)O)NC(=O)[C@H](CC(C)C)NC(=O)[C@H](CCCCN)NC(=O)[C@H](CC(C)C)NC(=O)CNC(=O)[C@H](Cc2ccccc2)NC(=O)[C@@H](C)NC1=O` [compound 117], with below 15 µM.
As for `CC[C@H](C)[C@@H]1NC(=O)[C@H](CCCNC(=N)N)NC(=O)[C@H](CC(=O)O)NC(=O)[C@H](CCSC)NC(=O)[C@H](CCCNC(=N)N)NC(=O)CNC(=O)CNC(=O)[C@H](Cc2ccccc2)NC(=O)[C@H](Cc2c[nH]cn2)NC(=O)[C@@H](NC(=O)[C@@H](N)CCSC)CSSC[C@@H](C(=O)N[C@@H](Cc2ccc(O)cc2)C(=O)N[C@@H](CCCNC(=N)N)C(N)=O)NC(=O)[C@H](CO)NC1=O` [mini-ANP, reference compound] (H-MCHFGGRMDRISCYR-NH2; disulfide 2-13), the Emax in experiment [7] (GTM3, FIG. 2, CNP = 100%, read-out: Emax (maximum activation) relative to CNP) was determined as 0%. The EC50 in experiment [7] (FIG. 2, highest concentration 45 μM, read-out: EC50, cyclic GMP production) is above 45 µM.
